Assays:
DC2.4 cells = assay: IFN-β induction by CDNs in DC2.4 antigen presenting cells (L929-ISRE luciferase reporter readout); assay type: cell-based, mouse; details: for relative level of IFN-β induced: DC2.4 cells incubated with 5, 20 and 100 μM CDN for 30 minutes, culture fluids after 4 hours, RLU in L929-ISRE reporter cells, FIG. 7; for level of IFN-β expression compared to c-di-GMP or c-di-AMP: cyclic dinucleotides not incubated with SVPD, 100 μM, DC2.4 cells, FIG. 8
Procedure: To measure the level of induced IFN-β, cell culture fluids from each sample were collected after 4 hours, and 10 μL was added to 5×10^4 L929-ISRE luciferase reporter cells cultured in RPMI media+10% FBS.

TRAMP-C2 tumor cells = assay: Anti-tumor efficacy of CDNs formulated with GVAX in a subcutaneous murine prostate cancer model; assay type: in vivo, C57BL/6 mice; details: by day 52 post tumor implantation; s.c. vaccination on days 4 and 11; FIG. 12
Procedure: The relative in vivo anti-tumor efficacy of the Rp, Rp dithio c-di-AMP and unmodified c-di-AMP derivatives were evaluated in a subcutaneous mouse model of prostate cancer. The derivative molecules were formulated with 1×10^6 irradiated whole TRAMP-C2 murine prostate tumor cells expressing GM-CSF (GVAX). Groups of 5 male C57BL/6 mice were implanted with 1×10^5 TRAMP-C2 tumor cells subcutaneous in the footpad. On days 4 and 11 post tumor implantation, mice were administered vaccinations subcutaneous in the flank of either GVAX alone, or GVAX formulated with RR-CDA or CDA, and compared to HBSS control. Tumor growth was monitored by calipers, and tumor volume was calculated.

[1] = system: snake venom phosphodiesterase (SVPD); details: 1 mg SVPD overnight at 37° C.; then 100 μM on DC2.4 cells; FIG. 8
[2] = system: THP1-Blue human monocytes; assay: IFN-β induction in THP1-Blue human monocytes (IRF-inducible SEAP reporter); assay type: cell-based; details: FIG. 15
Procedure: To determine the relative potency of the prodrug form of c-di-GMP to activate the innate immune response, relative levels of IFN-β induced in a human monocyte cell line were assessed. […] Cell culture supernatants from each sample were collected after 4 hours. 10 μL of the cell culture supernatants was added to QUANTI-Blue reagent (Invivogen) and incubated for 15-30 minutes. Absorbance at 655 nm was measured using a Model 680 spectrophotometer (BioRad).

[3] = system: OVA-specific CD8+ T cell responses; assay: OVA-specific CD8 T cell responses in splenocytes by intracellular cytokine staining after vaccination with CDN prodrug; assay type: in vivo, C57BL/6 mice; details: 5 μg CDN prodrug with 10 μg OVA and Addavax, s.c. twice, splenocytes 7 days post second vaccination; FIG. 16
Procedure: To assess the ability of the mono-2′-O-myristoyl c-di-GMP (“mono-2′-O-myristoyl CDG”) derivative to induce in vivo immune responses, OVA-specific CD8 T cell responses were measured in splenocytes at 7 days post second vaccination in conjunction with CDN treatment. To test the ability of mono-2′-O-myristoyl c-di-GMP relative to stimulate an OVA-specific immune responses, vaccines were prepared by combining 10 μg of OVA protein (EndoFit OVA, Invivogen) and Addavax (2% squalene final) with either 0 (Control) or 5 μg of mono-2′-O-myristoyl c-di-GMP derivative (“mono-2′-O-myristoyl CDG”), in a total volume of 100 μL. Groups of five female C57BL/6 mice (H-2b) were immunized twice subcutaneously (s.c) in the base of the tail with the vaccine preparations, and the OVA-specific CD8+ T cell responses in the spleens were determined by intracellular cytokine staining 7 days later. 1×10^6 splenocytes were unstimulated or stimulated with 1 μM of MHC class I (OVA257-264 SIINFEKL; SL8) peptide overnight and IFN-γ production was measured by flow cytometer on a BD FACSVerse.

[4] = system: OVA-specific CD4+ and CD8+ T cell responses; assay: OVA-specific CD4+ and CD8+ T cell responses in PBMC by IFN-γ ELISpot after vaccination with OVA/Addavax plus CDN; assay type: in vivo, C57BL/6 mice; details: once s.c., PBMC 10 days post vaccination, FIG. 9
Procedure: To test the enhanced in vivo immunogenicity of Rp, Rp dithio c-di-GMP relative to unmodified c-di-GMP molecules, OVA-specific CD4+ and CD8+ T cell responses were measured in PBMCs at 10 days post vaccination in conjunction with CDN treatment. Vaccines were prepared by combining 10 μg of OVA protein (EndoFit OVA, InVivogen) and Addavax (2% squalene final) with either 25 μg or 5 μg of cyclic dinucleotide, in a total volume of 100 μL. Groups of five female C57BL/6 mice (H-2b) were immunized once subcutaneously (s.c) in the base of the tail with the vaccine preparations, and the OVA-specific CD4+ and CD8+ T cell responses in the peripheral blood mononuclear cell (PBMC) compartment were determined by ELISpot analysis 10 days later. 1×10^5 PBMCs and 1×10^5 splenocyte feeder cells isolated from aged-matched naïve C57BL/6 mice were un-stimulated or stimulated with 1 μM of MHC class II peptide (OVA265-280 TEWTSSNVMEERKIKV) or MHC class I (OVA257-264 SIINFEKL) peptide overnight and IFN-γ spot forming cells were measured, as described previously.

[5] = system: SIV gag-specific CD8+ and CD4+ T cell responses; assay: SIV gag-specific CD8 and CD4 T cell responses by IFNγ ELISpot after vaccination with SIV gag protein plus CDN; assay type: in vivo, C57BL/6 mice; details: 1 ug CDN with 10 ug SIV gag protein in 2% squalene-in-water, s.c. twice 20 days apart, spleens six days after second vaccination; FIG. 10
Procedure: To further assess the immunogenicity of Rp, Rp dithio c-di-GMP relative to unmodified c-di-GMP molecules, SIV gag-specific CD8+ and CD4+ T cell responses were measured. Five C57BL/6 mice per group were immunized subcutaneously twice with either 1 ug Rp, Rp dithio c-di-GMP or saline control formulated in 2% squalene-in-water with 10 ug SIV gag protein. Vaccinations were separated by 20 days, and spleens were harvested six days after the second vaccination. Immune responses were measured to SIV gag-specific CD8 (AL11, SIV gag312-322, A) and CD4 (DD13, SIV gag300-312, B) T cell epitopes by IFNγ ELISpot assay. Plates were scanned and spot forming cells (SFC) per well were enumerated using an ImmunoSpot analyzer (CTL).

[6] = system: OVA257-specific CD8 T cell responses; assay: OVA-specific CD8 T cell memory and expansion in PBMC by intracellular cytokine staining after prime-boost vaccination; assay type: in vivo, C57BL/6 mice
Procedure: (§1) To establish the enhanced immunogenicity and accompanying protective immunity induced by Rp, Rp dithio c-di-GMP relative to unmodified c-di-GMP, OVA-specific CD8 T cell responses measured in PBMC and protective immunity assessed against lethal bacterial challenge. Vaccines were prepared by combining 10 μg of OVA protein (EndoFit OVA, InVivogen) and Addavax (2% squalene final) with 25 μg of cyclic dinucleotide, in a total volume of 100 μL. Groups of five female C57BL/6 mice (H-2^b) were immunized twice subcutaneously (s.c) in the base of the tail with the vaccine preparations. The interval between the prime and boost immunizations was 36 days. The magnitude of both the memory and expansion phases of the OVA257-specific CD8 T cell responses in PBMC were quantified by intracellular cytokine staining (ICS) analysis at both 27 days post-boost vaccination and at 3 days post challenge with a 2× lethal dose (LD)50 dose (1×10^5 colony forming units; CFU) of OVA-expressing wild-type Listeria monocytogenes (WT Lm-OVA). For ICS analysis, 1×10^5 PBMCs from test mice combined with 1×10^5 splenocyte feeder cells isolated from aged-matched naïve C57BL/6 mice were un-stimulated or stimulated with 1 μM of MHC class I peptide (OVA257-264 SIINFEKL) for 5 hrs. in the presence of Brefeldin A, and IFN-γ production was measured by flow cytometry on a BD FACSVerse.

[7] = system: OVA-expressing wild-type Listeria monocytogenes (WT Lm-OVA); assay: Protective immunity against lethal WT Lm-OVA challenge (spleen CFU); assay type: in vivo, C57BL/6 mice; details: i.v. 2×LD50 (1×10^5 CFU) WT Lm-OVA at 27 days post boost; spleens 3 days later; FIG. 11C
Procedure: as §1, with “FACSVerse. […]” for “FACSVerse.”

**Q.** How did the “relative level of IFN-β induced” value (DC2.4 cells) turn out when Nc1ncnc2c1ncn2C1OC2COP(=O)(S)OC3C(COP(=O)(S)OC2C1O)OC(n1cnc2c(N)ncnc21)C3O (stereo not drawn) [Rp, Rp dithio c-di-AMP, dithio [Rp,Rp] c-di-AMP] was run?
**A.** induced significantly higher levels of IFN-β than either the c-di-GMP or c-di-AMP unmodified cyclic dinucleotide molecules

**Q.** What about the “level of IFN-β expression compared to c-di-GMP or c-di-AMP” value (DC2.4 cells) of the same compound?
**A.** greater

**Q.** What about the “anti-tumor efficacy compared to GVAX alone or GVAX formulated with unmodified c-di-AMP” value (TRAMP-C2 tumor cells) of the same compound?
**A.** increased anti-tumor potency

**Q.** What about the “level of IFN-β expression after incubation of the CDN with SVPD versus without SVPD” value (shortened to “level … with SVPD versus without SVPD”) [1] of the same compound?
**A.** equivalent

**Q.** For Nc1nc2c(ncn2[C@@H]2O[C@@H]3CO[P@@](O)(=S)O[C@H]4[C@@H](O)[C@H](n5cnc6c(=O)[nH]c(N)nc65)O[C@@H]4CO[P@](O)(=S)O[C@H]3[C@H]2O)c(=O)[nH]1 [Rp, Sp dithio c-di-GMP, dithio [Rp,Sp] c-di-GMP], which “relative level of IFN-β induced” value (DC2.4 cells) is on record?
**A.** lower than the level induced by both the Rp, Rp dithio c-di-GMP and the Rp, Rp dithio c-di-AMP diastereomers as well as the native c-di-GMP and c-di-AMP molecules

**Q.** For CCCCCCCCCCCCCC(=O)OC1C2OP(=O)(O)OCC3OC(n4cnc5c(=O)[nH]c(N)nc54)C(O)C3OP(=O)(O)OCC2OC1n1cnc2c(=O)[nH]c(N)nc21 (stereo not drawn) [mono-2′-O-myristoyl c-di-GMP], which “levels of IFN-β induced compared to unmodified c-di-GMP and background (HBSS)” value ([2]; 100 μM for 30 minutes, supernatants after 4 hours, absorbance at 655 nm) is on record?
**A.** significantly higher levels of IFN-β

**Q.** What about the “OVA-specific CD8 T cell immune responses compared to Control vaccines” value [3] of the same compound?
**A.** greater immune responses

**Q.** Which “level … with SVPD versus without SVPD” value [1] does the source give for Nc1nc2c(ncn2[C@@H]2O[C@@H]3COP(=O)(O)O[C@H]4[C@@H](O)[C@H](n5cnc6c(=O)[nH]c(N)nc65)O[C@@H]4COP(=O)(O)O[C@H]3[C@H]2O)c(=O)[nH]1 [c-di-GMP, reference compound] here?
**A.** significantly lower

**Q.** How did the “level … with SVPD versus without SVPD” value [1] turn out when Nc1ncnc2c1ncn2[C@@H]1O[C@@H]2COP(=O)(O)O[C@H]3[C@@H](O)[C@H](n4cnc5c(N)ncnc54)O[C@@H]3COP(=O)(O)O[C@H]2[C@H]1O [c-di-AMP, reference compound] was run?
**A.** significantly lower

**Q.** Nc1nc2c(ncn2[C@@H]2O[C@@H]3CO[P@@](=O)(S)O[C@H]4[C@@H](O)[C@H](n5cnc6c(=O)[nH]c(N)nc65)O[C@@H]4CO[P@@](=O)(S)O[C@H]3[C@H]2O)c(=O)[nH]1 [Rp, Rp dithio c-di-GMP, dithio [Rp,Rp] c-di-GMP] was tested. Which “relative level of IFN-β induced” value (DC2.4 cells) did it give?
**A.** induced significantly higher levels of IFN-β than either the c-di-GMP or c-di-AMP unmodified cyclic dinucleotide molecules

**Q.** And the “level of IFN-β expression compared to c-di-GMP or c-di-AMP” value (DC2.4 cells)?
**A.** greater

**Q.** What about the “magnitude of antigen-specific CD8+ T cell responses compared to 5 μg or 25 μg of unmodified c-di-GMP” value ([4]; 5 μg CDN) of the same compound?
**A.** greater

**Q.** And the “CD4+ and CD8+ OVA-specific T cell responses compared to unmodified c-di-GMP” value ([4]; same amount of CDN adjuvant (25 μg or 5 μg))?
**A.** of greater magnitude

**Q.** What about the “SIV gag-specific CD8 and CD4 T cell responses compared to saline control” value [5] of the same compound?
**A.** significantly higher

**Q.** What about the “OVA-specific CD8 T cell memory compared to unmodified c-di-GMP adjuvanted vaccines” value ([6]; 25 μg CDN, s.c. prime and boost 36 days apart, PBMC 27 days post-boost, FIG. 11A) of the same compound?
**A.** higher magnitude of OVA-specific CD8 T cell memory

**Q.** What about the “expansion of OVA-specific memory CD8 T cells following challenge, compared to unmodified c-di-GMP adjuvanted vaccines” value ([6]; 3 days post challenge with 2× LD50 WT Lm-OVA, FIG. 11A) of the same compound?
**A.** expanded to a higher magnitude

**Q.** What about the “magnitude of OVA-specific CD8 T cell memory” value ([6]; FACS plot, FIG. 11B, 25 μg CDN adjuvanted vaccine) of the same compound?
**A.** ~30 % of the total CD8 T cell population in PBMC

**Q.** And the “protection against virulent pathogen challenge (spleen colonies)” value [7]?
**A.** complete protection (below the limit of detection, LOD)

**Q.** What about the “IFN-β induction compared to Rp, Sp dithio c-di-GMP and unmodified c-di-GMP” value ([2]; human monocyte cell line) of the same compound?
**A.** superior induction

**Q.** And the “level … with SVPD versus without SVPD” value [1]?
**A.** equivalent

**Q.** How did the “relative level of IFN-β induced” value (DC2.4 cells) turn out when Nc1ncnc2c1ncn2C1OC2COP(=O)(S)OC3C(COP(=O)(S)OC2C1O)OC(n1cnc2c(N)ncnc21)C3O (stereo not drawn) [Rp, Sp dithio c-di-AMP, dithio [Rp,Sp] c-di-AMP] was run?
**A.** lower than the level induced by both the Rp, Rp dithio c-di-GMP and the Rp, Rp dithio c-di-AMP diastereomers as well as the native c-di-GMP and c-di-AMP molecules

— patent US10414789B2, “Compositions comprising cyclic purine dinucleotides having defined stereochemistries and methods for their preparation and use” (ADURO BIOTECH, INC., priority 2012, dated 2019)
